Source: patent US4973593A, “Novel compounds for the treatment of hypertension” (Research Corporation Technologies, Inc., priority 1987, dated 1990)

Legend:
[1] = test system: cat cardioaccelerator nerve; assay: Cat Cardioaccelerator Nerve Assay (in vivo peripheral dopamine agonist activity); conditions: for % inhibn of nerve stimulation: N=3; for peripheral dopamine agonist activity: in vivo, summary of Table I
Protocol: Cats were anesthetized by injection of pentobarbital sodium (30 mg/kg) into the thoracic cavity, and the surgical and experimental procedure was according to the procedure described in Cannon, J. G., et al. in J. Med. Chem. 1984, 27, 186. Experimental compounds were administered intravenously in doses of 0.33 log intervals.
The compounds 11, 15, and 18 were evaluated for in vivo dopamine agonist activity in the cat cardioaccelerator nerve assay.

nigrostriatal projection = assay: Rotation Assay (circling behavior, 6-hydroxydopamine unilateral denervation of the nigrostriatal projection); type: in vivo, Male Sprague-Dawley rats; conditions: for antagonism of apomorphine-induced rotations in rats: apomorphine 0.25 mg/kg, compound 4.0 mg/kg; for rotational behavior in rats with unilateral lesions of the nigrostriatal projection: dose 4.0 mg/kg
Protocol: Male Sprague-Dawley rats with 6-hydroxydopamine unilateral denervation of the nigrostriatal projection were used to test compounds for circling behavior according to the procedure of Cannon, et al. in J. Med. Chem 1984, 27, 186. Compounds were administered at a dose of 4.0 mg/kg and were also evaluated for their ability to antagonize apomorphine (0.25 mg/kg) induced rotations.
Finally, the compounds 11, 15, and 18 were evaluated for in vivo rat rotation assay.

dopamine receptor = assay: Dopamine Receptor Binding Studies ([^3 H]spiroperidol displacement, rat striatal tissue); conditions: [^3 H]spiroperidol 2 nM
Protocol: A method of Seeman, et al., Proc. Natl. Acad. Sci. U.S.A., 1975, 72, 4376, was employed using [^3 H]spiroperidol (2 nM) and rat striatal tissue.
Compound 11 was also evaluated for its ability to displace [^3 H] spiroperidol (2nm) from rat striatal tissue.

| SMILES | arterial pressure ([1]; dose 3.5, iv) | heart rate ([1]; dose 3.5, iv) | % inhibn of nerve stimulation ([1]; dose 3.5, iv) | peripheral dopamine agonist activity [1] | antagonism of apomorphine-induced rotations in rats (nigrostriatal projection) | rotational behavior in rats with unilateral lesions of the nigrostriatal projection (nigrostriatal projection) | % inhibn of nerve stimulation ([1]; dose 0.46, iv) | heart rate ([1]; dose 1.38, iv) | % inhibn of nerve stimulation ([1]; dose 1.38, iv) | arterial pressure ([1]; dose 4.60, iv) | % inhibn of nerve stimulation ([1]; dose 4.60, iv) | ability to displace [^3 H]spiroperidol from rat striatal tissue (dopamine receptor) | % inhibn of nerve stimulation ([1]; dose 0.035, iv) | % inhibn of nerve stimulation ([1]; dose 0.105, iv) | % inhibn of nerve stimulation ([1]; dose 0.315, iv) |
| --- | --- | --- | --- | --- | --- | --- | --- | --- | --- | --- | --- | --- | --- | --- | --- |
| CN1CCCC2(OCCO2)C1Cc1c[nH]c2ccccc12 (stereo not drawn) [Compound 15, 6-(3-Indolylmethyl)-7-methyl-1,4-dioxa-7-azaspiro[4.5]decane] | Increased arterial pressure at this dose | Increased heart rate slightly at this dose | 32 ± 17.4% | effective agonist activity | nor did they antagonize apomorphine-induced rotations | None of the compounds screened produced rotational behavior |  |  |  |  |  |  |  |  |  |
| CN1CCCC2(OCCO2)C1Cc1ccccc1 (stereo not drawn) [Compound 18, 6-Benzyl-7-methyl-1,4-dioxa-7-azaspiro[4.5]decane] |  |  |  | effective agonist activity | nor did they antagonize apomorphine-induced rotations | None of the compounds screened produced rotational behavior | 22 ± 11.7% | Increased heart rate slightly at this dose | 18 ± 2.0% | Increased arterial pressure at this dose | 36 ± 12.3% |  |  |  |  |
| CN1CCCC2(OCCO2)C1Cc1cccc2[nH]ccc12 (stereo not drawn) [Compound 11, 6-(4-Indolylmethyl)-7-methyl-1,4-dioxa-7-azaspiro[4.5]decane] |  |  |  | effective agonist activity | nor did they antagonize apomorphine-induced rotations | None of the compounds screened produced rotational behavior |  |  |  |  |  | inactive | 26 ± 19% | 48 ± 21% | 79 ± 11% |
